Measured values published in US8158792B2, “Spiropiperidines for use as tryptase inhibitors” (Janssen Pharmaceutica N.V., priority 2007, dated 2012).
pIC50: −log10 of the molar value. Where a name gives a salt, the structure may show the parent alone.

What was measured:
mild asthmatics = settings: nebulized dry powder, 16 mild asthmatics, compared with placebo, cited from earlier work
[1] = system: guinea pig model of allergic asthma; assay: Guinea Pig Efficacy Model (OVA allergic asthma); format: in vivo
Protocol: The in vivo efficacy of Compound 3 was evaluated in a guinea pig model of allergic asthma. In this model, guinea pigs were sensitized and challenged with chicken egg ovalbumin (OVA) according to the protocol of N. Smith and F. J. Johnson (Clin. Exp. Allergy 2005, 35, 522-530), with some slight modifications. Guinea pigs were sensitized with 80 mg of OVA and 80 mg of aluminum hydroxide administered intraperitoneally on day 0, then challenged with 0.03% OVA aerosol for 10 minutes on day 14. In the experiment measuring early phase pulmonary response (EAR), guinea pigs were challenged for an additional three minutes with 0.06% OVA aerosol. EAR was measured as enhanced pause (PenH) using BUXCO whole body plethysmography for 10 minutes immediately following the OVA aerosol challenge. The animals were then euthanized and assessed for bronchoalveolar lavage (BAL) immune cell counts 24 hours after aerosol challenge on day 15. Either Compound 3 in doses of 3, 10, and/or 30 mg/kg or vehicle were administered subcutaneously, 1-2 hours before and 4-6 hours after OVA aerosol challenge.

[2] = system: antigen-induced allergic sheep; assay: Sheep Efficacy Model (antigen-induced allergic sheep asthma model); format: in vivo; settings: 30 mg/kg BID oral gavage, two sheep
Protocol: The in vivo efficacy of Compound 3 was evaluated in antigen-induced allergic sheep, which is a well-characterized asthma model (Abraham, W. M. Pulmonary Pharmacol. 1989, 2, 33-40). Compound 3 was administered via oral gavage to two sheep previously shown to be allergic responders to inhaled Ascaris suum antigen (FIG. 1). The compound was given at a dose of 30 mg/kg, BID, on day 1, and again on day 2 at 2 h prior to antigen challenge and then 4 h after antigen challenge. Airway resistance (SRL) was monitored for 8 h post antigen challenge and airway hyper-reactivity to carbachol (PC400) was measured 24 h post antigen challenge.

human lung tryptase = assay: β-Tryptase In-Vitro Enzyme Assay; format: biochemical; settings: human lung tryptase 1 nM, substrate H-D-HHT-Ala-Arg-pNa 500 μM, pH 7.4, room temperature
Protocol: The β-tryptase assay was conducted with human lung tryptase (Cortex Biochem #CP3033) in an aqueous buffer (10 mM Tris, 10 mM Hepes, 150 mM NaCl, 0.1% PEG 8000, pH 7.4) using the chromogenic substrate H-D-HHT-Ala-Arg-pNa. […] Percent inhibition was calculated by comparing the initial reaction velocity of samples without inhibitor to those with inhibitor. The initial reaction velocities were analyzed using Microsoft Excel.

[3] = 3, 10 and 30 mg/kg subcutaneously, 24 hours after OVA aerosol challenge

## NCc1ccc2c(c1)C1(CCN(C(=O)c3ccc(C#Cc4ccccc4)o3)CC1)CO2 (as salt: salt) [Cpd 3, 1-(5-phenylethynyl-furan-2-yl)carbonyl-5′-aminomethyl-spiro[piperidine-4,3′-(2H)-benzo[b]furan]]
other
  melting point: 179 to 181 °C

## NC(=O)[C@@H]1CCCN1C(=O)[C@H](CCCN=C(N)N)NC(=O)c1ccc2ccccc2c1O [APC-366]
Mild asthmatics; ρ=0.007
  mean maximum decrease of forced expiratory volume in one second for late airway hyperresponsiveness: 21%
Mild asthmatics; ρ=0.012
  improvement for the late airway response: 33%

## NCc1ccc2c(c1)C1(CCN(C(=O)c3ccc(C#Cc4ccccc4)o3)CC1)CO2 [Cpd 3, 1-(5-phenylethynyl-furan-2-yl)carbonyl-5′-aminomethyl-spiro[piperidine-4,3′-(2H)-benzo[b]furan]]
[1]; 30 mg/kg subcutaneously, 24 hours after OVA aerosol challenge
  reduction in BAL eosinophils: 66%
[1]; 30 mg/kg subcutaneously, relative to sensitized and challenged guinea pigs treated with vehicle
  reduction in EAR as measured with whole body plethysmography (in PenH): greater than 93%
[1]; [3]
  eosinophilic BAL cell counts: dose-dependent reduction
  total BAL cell counts: dose-dependent reduction
[2]
  acute early phase response (EP; 0-4 h) post antigen, specific airway resistance (SRL): did not effect a change
[2]; 24 h post antigen challenge
  increase in airway hyper-reactivity to carbachol (PC400) at 24 h: completely blocked
[2]; inhaled Ascaris suum antigen challenge
  late response (LP; 4-8 h post antigen), specific airway resistance (SRL): completely blocked
Human lung tryptase
  pIC50: 8.46

## NCc1ccc2c(c1)C1(CCN(C(=O)c3ccc(C#Cc4ccccc4)o3)CC1)CN2S(=O)(=O)c1cccs1 [Cpd 358, 1-(5-phenylethynyl-furan-2-yl)carbonyl-1′-thien-2-ylsulfonyl-5′-aminomethyl-spiro[piperidine-4,3′-(2H)-indole]]
Human lung tryptase
  pIC50: 7.59

## NCc1ccc2c(c1)C1(CCN(C(=O)c3ccc(C#Cc4ccccc4)o3)CC1)CN2S(=O)(=O)c1ccsc1 [Cpd 359, 1-(5-phenylethynyl-furan-2-yl)carbonyl-1′-thien-3-ylsulfonyl-5′-aminomethyl-spiro[piperidine-4,3′-(2H)-indole]]
Human lung tryptase
  pIC50: 7.82
